Test results taken from article PMC12541891 (MicrobiologyOpen, 2025).
In brackets after ≈: the same amount, converted by molar mass.

Assays:
[1] = tested on: Extended Spectrum-Beta-Lactamase producing E. coli (ESBL-Ec); test: MIC and MBC by microbroth dilution; format: cell-based; conditions: Escherichia coli
Protocol: (§1) No substance was added, in one well, for growth control. A bacterial suspension of 1 × 10^8 CFU/mL was inoculated into all wells of the plate and incubated for 24 h at 37°C. […] The dilutions ranged from 4 to 2000 µg/mL for the substances. The inoculum size was about 2.5×10^3 cells/mL. The plates were incubated at 28°C for 24–48 h. The MIC was determined as the lowest substances' concentration where no visible bacterial or fungal growth was observed. […] Each antimicrobial assay was performed in triplicate.

[2] = tested on: Staphylococcus aureus ATCC 6538; test: MIC and MBC by microbroth dilution; format: cell-based
Protocol: as §1

C. krusei 44956 = test: MIC and MFC by microbroth dilution; format: cell-based, Candida krusei; conditions: Pichia kudriavzevii, 44956
Protocol: as §1

E. coli biofilm = test: Biofilm biomass by crystal violet (CV) assay; format: cell-based, Escherichia coli; conditions: substance alone at MIC
Protocol: (§2) For all bacterial strains considered in the study, biofilm was performed on a 96‐well plate inoculated with 200 µL of a bacterial suspension 1 × 10^6 CFU/mL and incubated 24 h at 37°C. After incubation for 4 h at 37°C, the medium was aspirated, non‐adherent cells were removed, washed with PBS and added with 200 µL of fresh medium. […] Similarly, to perform fungal biofilm, the different Candida species were grown for 24 h at 28°C on a multi‐wells plate, washed twice with sterile PBS, and then resuspended at 37°C in RPMI 1640 plus 10% FBS at 2.5 × 10^7 cells. After incubation for 3 h at 37°C in six‐well polystyrene plates, the medium was aspirated, non‐adherent cells were removed and washed with PBS.
(§3) To quantify bacterial and Candida biofilm biomass, CV, a dye able to color the biofilm matrix, was used. Firstly, after the removal of supernatant and washing with PBS, biofilm was fixed adding 100 µL of 99% methanol for 15 min. Then, methanol was rinsed off and the plates were air‐dried. Subsequently, 100 µL of a 0.1% of CV solution were added to wells and, after 20 min of contact, the plates were washed under running tap water. To dissolve the bounded CV, 150 µL of 33% of glacial acetic acid were added to wells. The absorbance was measured at 590 nm using an automatic microplate reader, Tecan Sunrise (Tecan Group Ltd., Männedorf, Switzerland).

ESBL-Ec biofilm = test: Biofilm biomass by crystal violet (CV) assay; format: cell-based, Escherichia coli; conditions: substance alone at MIC
Protocol: as §2, §3

MRSA biofilm [3] = test: Biofilm biomass by crystal violet (CV) assay; format: cell-based, Staphylococcus aureus
Protocol: as §2, §3

S. aureus biofilm [4] = test: Biofilm biomass by crystal violet (CV) assay; format: cell-based, Staphylococcus aureus; conditions: substance alone at MIC
Protocol: as §2, §3

C. albicans biofilm = test: Biofilm biomass by crystal violet (CV) assay; format: cell-based, Candida albicans
Protocol: as §2, §3

C. glabrata biofilm [5] = test: Biofilm biomass by crystal violet (CV) assay; format: cell-based, Candida glabrata
Protocol: as §2, §3

C. tropicalis biofilm = test: Biofilm biomass by crystal violet (CV) assay; format: cell-based, Candida tropicalis
Protocol: as §2, §3

MRSA biofilm [6] = test: Biofilm metabolic activity by XTT-reduction assay; format: cell-based, Staphylococcus aureus; conditions: substance alone at MIC
Protocol: as §2
(§4) The biofilm metabolic activity was evaluated by XTT assay, that highpoints the activity through the reduction of the tetrazolium salt to formazan. After the removal of supernatant and washing with PBS, a solution of XTT‐menadione solution were added to wells. The XTT‐menadione was prepared dissolving XTT powder in prewarmed PBS (37°C) at 0.5 g/L. The solution was sterilized through a 0.22 μm pore size filter. Before each assay, the XTT solution was thawed and supplemented with menadione, a 10 mM stock dissolved in acetone to a final concentration 1 μM. Plates were incubated for 3 h at 37°C in the dark and then the absorbance was measured at 492 nm using the microplate reader, Tecan Sunrise.

S. aureus biofilm [7] = test: Biofilm metabolic activity by XTT-reduction assay; format: cell-based, Staphylococcus aureus; conditions: substance alone at MIC
Protocol: as §2, §4

C. glabrata biofilm [8] = test: Biofilm metabolic activity by XTT-reduction assay; format: cell-based, Candida glabrata
Protocol: as §2, §4

C. krusei biofilm = test: Biofilm metabolic activity by XTT-reduction assay; format: cell-based, Candida krusei
Protocol: as §2, §4

A549 cell line = test: MTT cytotoxicity assay; conditions: A549, 24 h contact, 15-125 µg/mL tested
Protocol: (§5) These cell lines were purchased from the American Type Culture Collection (ATCC HTB‐37, Rockville, USA) and stored in liquid nitrogen. T24 cells were cultured in RPMI, supplemented with 10% FBS, 2 mM glutamine, 100 U/mL penicillin, and 100 µg/mL streptomycin. A549 and Caco‐2 cells were cultured in DMEM, supplemented with 10% FBS, 100 U/mL penicillin and 100 μg/mL streptomycin. Cultures were incubated at 37°C in a humidified 5% CO2 atmosphere.
(§6) In a 96‐well plate, 200 μL of cell suspension (10^4 cells/well) were added to each well and plates were incubated at 37°C, 5% CO2. […] Untreated cells were taken as control. After 24 h of treatment, culture medium was replaced with 200 μL of fresh medium added with MTT (5 mg/mL), then plates were incubated for 4 h at 37°C, 5% CO2 atmosphere. Afterward, culture medium with MTT was removed and 200 μl of DMSO were added to each well to dissolve the formazan crystals formed in living cells. After 15 min of incubation, the absorbance was measured at 570 nm, with the reference set at 620 nm, using the automatic microplate reader, Tecan Sunrise (Kumar et al. [2018]). Controls in all the experiments were: (i) wells without the substances assayed, as positive cells growth control; (ii) wells added with ethanol or DMSO in the same amounts in which the substances were suspended, as cells growth control in presence of the substances' solvents.

Caco-2 cell line = test: MTT cytotoxicity assay; conditions: Caco-2, 24 h contact, 15-125 µg/mL tested
Protocol: as §5, §6

[9] = preformed biofilm (24 h), substance alone at MIC
[10] = biofilm in formation, sub-MIC concentrations alone or in combination (Table 5), listed as C
[11] = preformed biofilm, sub-MIC concentrations alone or in combination (Table 5), listed as C
[12] = biofilm in formation (3 h), substance alone at MIC

## Cc1ccc(C(C)C)cc1O [Carvacrol, 2‐methyl‐5‐isopropyl phenol]
[1]
  MBC: 125 µg/mL (≈ 832 µM)
[1]; 24 h
  MIC: 125 µg/mL (≈ 832 µM)
[2]; ATCC6538
  MBC: 125 µg/mL (≈ 832 µM)
[2]; ATCC6538, 24 h
  MIC: 125 µg/mL (≈ 832 µM)
C. krusei 44956
  MFC: 500 µg/mL (≈ 3330 µM)
  MIC: 500 µg/mL (≈ 3330 µM)
E. coli biofilm; biofilm in formation (4 h)
  Percentage of biomass reduction: 70.6%
E. coli biofilm; preformed biofilm (24 h)
  Percentage of biomass reduction: 62.2%
ESBL-Ec biofilm; biofilm in formation (4 h)
  Percentage of biomass reduction: 55.9%
ESBL-Ec biofilm; preformed biofilm (24 h)
  Percentage of biomass reduction: 59.6%
MRSA biofilm [3]; biofilm in formation (4 h), substance alone at MIC
  Percentage of biomass reduction: 26.7%
MRSA biofilm [3]; biofilm in formation, sub-MIC concentrations alone or in combination (Table 5)
  Percentage of biomass reduction: 30%
MRSA biofilm [3]; [9]
  Percentage of biomass reduction: 58%
S. aureus biofilm [4]; biofilm in formation (4 h)
  Percentage of biomass reduction: 56.2%
S. aureus biofilm [4]; preformed biofilm (24 h)
  Percentage of biomass reduction: 71.5%
C. albicans biofilm; [10]
  Percentage of biomass reduction: 53.5%
C. albicans biofilm; [9]
  Percentage of biomass reduction: 36%
C. albicans biofilm; [11]
  Percentage of biomass reduction: 29.6%
C. glabrata biofilm [5]; [10]
  Percentage of biomass reduction: 64.9%
C. glabrata biofilm [5]; [9]
  Percentage of biomass reduction: 52.9%
C. glabrata biofilm [5]; [11]
  Percentage of biomass reduction: 44.3%
C. tropicalis biofilm; [10]
  Percentage of biomass reduction: 25.3%
C. tropicalis biofilm; [9]
  Percentage of biomass reduction: 57.4%
C. tropicalis biofilm; [11]
  Percentage of biomass reduction: 20.8%
MRSA biofilm [6]; biofilm in formation (4 h)
  Percentage of metabolic activity reduction: 24.6%
MRSA biofilm [6]; preformed biofilm (24 h)
  Percentage of metabolic activity reduction: 45.6%
S. aureus biofilm [7]; biofilm in formation (4 h)
  Percentage of metabolic activity reduction: 54.9%
S. aureus biofilm [7]; preformed biofilm (24 h)
  Percentage of metabolic activity reduction: 88%
C. glabrata biofilm [8]; [12]
  Percentage of metabolic activity reduction: 92%
C. glabrata biofilm [8]; [10]
  Percentage of metabolic activity reduction: 70%
C. glabrata biofilm [8]; [9]
  Percentage of metabolic activity reduction: 91.0%
C. glabrata biofilm [8]; [11]
  Percentage of metabolic activity reduction: 51.2%
C. krusei biofilm; [12]
  Percentage of metabolic activity reduction: 89.4%
C. krusei biofilm; [10]
  Percentage of metabolic activity reduction: 30%
C. krusei biofilm; [9]
  Percentage of metabolic activity reduction: 89.4%
C. krusei biofilm; [11]
  Percentage of metabolic activity reduction: 25%
A549 cell line
  concentrations significantly cytotoxic: > 31000 ng/mL
Caco-2 cell line
  concentrations significantly cytotoxic: > 31000 ng/mL
